A short description of data set [1]: PK study in rat (bioavailability). The conditions noted are these: plasma, oral vs intravenous administration. It is filed as in vivo. How it is done:
In this study, the pharmacokinetics of the present compound can be evaluated. Specifically, a 7-week-old SD-type or WKY-type rat received the intravenous administration of a solution of the present compound in saline or the oral administration of a suspension of the present compound in carboxymethylcellulose or methylcellulose. Blood was collected from the rat at each time below.
Intravenous administration: 5 minutes, 15 minutes, 30 minutes, 1 hour, 2 hours, 4 hours, 6 hours, and 24 hours after administration
Oral administration: 15 minutes, 30 minutes, 1 hour, 2 hours, 4 hours, 6 hours, and 24 hours after administration
Plasma was collected from the blood, the levels of the present compound in the plasma were measured by a LC-MS method, and then the pharmacokinetic parameters were calculated on the basis of the level changes.

Data set [2] concerns the target T1, human adrenergic α2A receptor (Homo sapiens, UniProt P08913).
T1 construct: expressed in transfected cells; host or cells: CHO-K1 or HEK293 cells
T1 sequence (P08913 1-465): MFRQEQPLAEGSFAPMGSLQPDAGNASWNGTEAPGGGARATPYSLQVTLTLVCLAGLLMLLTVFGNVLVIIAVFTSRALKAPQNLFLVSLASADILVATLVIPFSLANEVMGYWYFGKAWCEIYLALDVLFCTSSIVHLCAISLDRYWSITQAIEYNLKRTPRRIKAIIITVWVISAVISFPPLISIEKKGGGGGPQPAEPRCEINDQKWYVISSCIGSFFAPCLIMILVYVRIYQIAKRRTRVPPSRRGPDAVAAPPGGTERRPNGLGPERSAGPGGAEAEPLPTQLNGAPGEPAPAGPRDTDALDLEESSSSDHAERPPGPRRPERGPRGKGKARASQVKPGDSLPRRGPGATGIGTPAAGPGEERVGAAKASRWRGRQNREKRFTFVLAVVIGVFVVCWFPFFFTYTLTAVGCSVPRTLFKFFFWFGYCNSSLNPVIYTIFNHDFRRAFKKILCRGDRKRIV
The data set can be described thus: Agonistic/antagonistic activity in G protein dependent pathway (aequorin intracellular calcium luminescence), α2A. The data set is classed as cell-based. The conditions noted are these: for Maximal activity on each receptor (%): α2A: 10 μM adrenaline = 100%; for inhibition at 0.1 µM / inhibition at 1 µM: against 10 μM endogenous ligand, read-out: Inhibitory activity on each receptor (%): α2A. The procedure:
(§1) Plasmids encoding each receptor, aequorin and Gα16 were prepared, and the plasmids were transfected into CHO cells (Chinese Hamster Ovary cells) or HEK293 cells (Human Embryonic Kidney 293 cells) to prepare expressing cell lines.
(§2) The agonistic or antagonistic activity of the present compound in the G protein dependent pathway was evaluated on the basis of intracellular calcium levels as follows. CHO-K1 or HEK293 cell lines transfected with D2, D4, α1A, or α2A receptor genes were seeded in a 384-well plate, and incubated in a CO2 incubator at 37° C. for 24 hours, and then a solution of the present compound in DMSO was added into cells preloaded with coelenterazine to measure the change in luminescent signals with a FDSS (Hamamatsu Photonics K.K.). […] The agonistic activity of the present compound was calculated according to the measured luminescent signals, as the maximal activity (Emax) of the present compound. On the other hand, the antagonistic activity of the present compound was calculated according to the luminescent signals in wells with 10 μM of an endogenous ligand alone defined as 100%, as the inhibitory activity of the present compound to an endogenous ligand. EC50 value was calculated as the concentration of the present compound required to achieve a 50% response, and IC50 was calculated as the concentration of the present compound required to achieve a 50% inhibition of the Emax of an endogenous ligand.
A general note: Calcium assays in cells follow changes in intracellular calcium, usually with a dye or a luminescent sensor.

A short description of data set [3]: Brain penetration study in rat. The data set is classed as in vivo. The note with it: brain and plasma, unbound brain-to-plasma drug concentration ratio. How it is done: In this study, the brain penetration of the present compound can be evaluated. Specifically, a 7-week-old SD-type or WKY-type rat received the subcutaneous administration of a solution of the present compound in saline or the oral administration of a suspension of the present compound in methylcellulose. Plasma and brain were collected from the treated rat 0.5 hour, 1 hour or 2 hours after the administration, and then the levels of the present compound in the plasma and the brain were measured by a LC-MS method.
The protein binding ratios of the present compound to the plasma and the brain were measured by an equilibrium dialysis method.
The levels of the present compound in the plasma and the brain as well as the plasma and brain protein binding ratios are applied to the following formula, and thus Kp,uu,brain (Unbound brain-to-plasma drug concentration ratio) can be calculated. Kp,uu,brain=(level of the present compound in the brain×(100−brain protein binding ratio (%))/100)/(level of the present compound in the plasma×(100−plasma protein binding ratio (%))/100)

Data set [4] has as its target T2, Human dopamine D2 receptor (Homo sapiens, UniProt P14416).
T2 construct: expressed in transfected cells; host or cells: CHO-K1 or HEK293 cells
The experiment in a line: Agonistic/antagonistic activity in G protein dependent pathway (aequorin intracellular calcium luminescence), D2. The data set is classed as cell-based. The note with it: for Maximal activity on each receptor (%): D2: 10 μM dopamine = 100%; for inhibition at 0.1 µM / inhibition at 1 µM: against 10 μM endogenous ligand, read-out: Inhibitory activity on each receptor (%): D2. How it is done:
as §1, §2

Data set [5] deals with T3, Human dopamine D4 receptor (Homo sapiens, UniProt P21917).
T3 sequence (P21917 1-419): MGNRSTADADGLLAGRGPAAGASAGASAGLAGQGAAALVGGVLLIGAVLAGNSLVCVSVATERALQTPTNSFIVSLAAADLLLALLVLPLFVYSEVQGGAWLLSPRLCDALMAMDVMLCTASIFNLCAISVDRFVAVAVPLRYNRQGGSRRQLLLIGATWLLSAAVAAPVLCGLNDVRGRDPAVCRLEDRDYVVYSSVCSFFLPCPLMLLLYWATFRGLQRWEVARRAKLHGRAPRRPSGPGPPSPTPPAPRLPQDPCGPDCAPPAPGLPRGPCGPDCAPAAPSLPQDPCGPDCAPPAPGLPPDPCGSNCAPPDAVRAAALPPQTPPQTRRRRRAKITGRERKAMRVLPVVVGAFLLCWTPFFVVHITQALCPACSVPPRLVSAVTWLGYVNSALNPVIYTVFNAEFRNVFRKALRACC
The data set can be described thus: Agonistic/antagonistic activity in G protein dependent pathway (aequorin intracellular calcium luminescence), D4. It is filed as cell-based. The conditions noted are these: for inhibition at 0.1 µM / inhibition at 1 µM: against 10 μM endogenous ligand, read-out: Inhibitory activity on each receptor (%): D4; for Emax at 0.1 µM / Emax at 1 µM: read-out: Maximal activity on each receptor (%): D4. More on the design: expressed in transfected cells; host or cells: CHO-K1 or HEK293 cells. How it is done:
as §1, §2

T2 sequence (P14416 whole entry): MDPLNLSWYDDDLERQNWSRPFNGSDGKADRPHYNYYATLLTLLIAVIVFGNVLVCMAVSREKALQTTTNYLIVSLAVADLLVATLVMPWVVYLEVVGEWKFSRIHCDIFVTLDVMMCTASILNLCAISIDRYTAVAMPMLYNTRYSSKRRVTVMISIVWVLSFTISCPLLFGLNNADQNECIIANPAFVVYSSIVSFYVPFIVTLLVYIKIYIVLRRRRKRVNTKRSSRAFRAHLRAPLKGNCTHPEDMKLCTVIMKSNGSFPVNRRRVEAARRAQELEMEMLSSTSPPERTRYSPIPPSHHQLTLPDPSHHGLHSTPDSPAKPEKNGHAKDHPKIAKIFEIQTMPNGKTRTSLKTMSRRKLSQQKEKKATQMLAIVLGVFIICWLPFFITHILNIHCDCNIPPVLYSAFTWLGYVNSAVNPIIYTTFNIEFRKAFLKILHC

For `Cc1ncc(CN2CCC(c3cncc(F)c3)CC2)cn1` [Example 33, 5-[4-(5-Fluoropyridin-3-yl)piperidin-1-ylmethyl]-2-methylpyrimidine], the bioavailability in data set [1] came out at 60.1%. Moreover, in data set [2] (0.1 μM), the “Maximal activity on each receptor (%): α2A” value (“Maximal activity … (%): α2A” for short) is recorded as −0.1% and the inhibition at 0.1 µM is 0.91%. Also, in data set [2] (1 μM), the “Maximal activity … (%): α2A” value is recorded as −0.12% and the inhibition at 1 µM was found to be 7.8%. Besides, the Kp uu in data set [3] stood at 0.44. Also, in data set [4] (0.1 μM), the “Maximal activity on each receptor (%): D2” value (from here on “Maximal activity … (%): D2”) came to 0.29% and the inhibition at 0.1 µM is -5.3%. In data set [4] (1 μM), the “Maximal activity … (%): D2” value worked out at 1.7% and the inhibition at 1 µM was found to be 1.2%. Moreover, in data set [5], the inhibition at 0.1 µM is 76%, the inhibition at 1 µM was found to be 98%, the Emax at 0.1 µM was determined as 28% and the Emax at 1 µM was found to be 51%.
For the compound `Nc1ncc(CN2CCC(c3cccnc3)CC2)cn1` [Example 37], the bioavailability in data set [1] is 81.7%. Further, in data set [2] (0.1 μM), the “Maximal activity … (%): α2A” value is given as −0.17% and the inhibition at 0.1 µM was 7.9%. In data set [2] (1 μM), the “Maximal activity … (%): α2A” value is recorded as −0.27% and the inhibition at 1 µM amounted to 0.24%. Further, the Kp uu in data set [3] was 5.51. In addition, in data set [4] (0.1 μM), the “Maximal activity … (%): D2” value is 5.4% and the inhibition at 0.1 µM was 14%. In addition, in data set [4] (1 μM), the “Maximal activity … (%): D2” value worked out at 18% and the inhibition at 1 µM is 47%. In data set [5], the inhibition at 0.1 µM came out at 64%, the inhibition at 1 µM was 77%, the Emax at 0.1 µM came to 18% and the Emax at 1 µM is 40%.
For the compound `Cc1ncc(CN2CCC(c3ccccn3)CC2)c(N)n1` [Example 5, 2-Methyl-5-[4-(pyridin-2-yl)piperidin-1-ylmethyl]pyrimidin-4-amine], the bioavailability in data set [1] stood at 16.8%. For the same compound, in data set [2] (0.1 μM), the “Maximal activity … (%): α2A” value is listed as −0.17% and the inhibition at 0.1 µM was -7%. In data set [2] (1 μM), the “Maximal activity … (%): α2A” value is reported as −0.04% and the inhibition at 1 µM is -1.7%. In addition, the Kp uu in data set [3] is 1.97. Also, in data set [4] (0.1 μM), the “Maximal activity … (%): D2” value was determined as 0.19% and the inhibition at 0.1 µM was -1.7%. Also, in data set [4] (1 μM), the “Maximal activity … (%): D2” value was found to be 1.1% and the inhibition at 1 µM worked out at 9.9%. Further, in data set [5], the inhibition at 0.1 µM was determined as 78%, the inhibition at 1 µM came out at 90%, the Emax at 0.1 µM turned out to be 59% and the Emax at 1 µM amounted to 74%.

As a reminder, the bioavailability is the share of a dose that reaches the circulation, judged against a reference dose that is usually intravenous. A high value points to good availability.
